{"source": "patent US9082985B2", "about": "“Arylsulfonic acid compound and use thereof as electron-acceptor material” (NISSAN CHEMICAL INDUSTRIES, LTD., priority 2008, dated 2015)"}
{"test": "Solubility test: amount of cyclohexanol (CHA) added until the varnish became clouded", "format": "physicochemical", "settings": "varnish of arylsulfonic acid compound with PTA (0.5 molar equivalents; 1.0 for NSO-2) in 1 g DMI, solid content 7.0 wt %; amount of CHA when the varnish became clouded", "description": "The arylsulfonic acid compounds obtained in the above Examples 1 to 4 and Comparative Example 1 were subjected to a solubility test in solvent according to the following procedure.\nThe respective arylsulfonic acid compounds obtained in Examples 1 to 4 and 0.5 molar equivalents of PTA, relative to the compound, were dissolved in 1 g of 1,3-dimethyl-2-imidazolidinone (hereinafter abbreviated as DMI) so that the solid content was set at 7.0 wt %, thereby preparing varnishes.\nCyclohexanol (hereinafter abbreviated as CHA) was added to the resulting varnish to determine, as an index for solubility, an amount of CHA at the time when the varnish became clouded.\nNSO-2 obtained in Comparative Example 1 and 1.0 molar equivalent of PTA, relative to NSO-2, were dissolved in 1 g of DMI so that the solid content was set at 7.0 wt %, thereby preparing a varnish.\nCHA was added to the resulting varnish to determine, as an index for solubility, an amount of CHA at the time when the varnish became clouded.", "units": {"Amount of dissolution in CHA": "g"}}
{"smiles": "N#Cc1c(F)c(F)c(Oc2cc(S(=O)(=O)O)cc3cc(S(=O)(=O)O)ccc23)c(F)c1C#N", "note": "[Example 3FNS-1, Dicyanoperfluorotoluenesulfonic acid compound]", "Amount of dissolution in CHA": 8.0}
{"smiles": "N#Cc1c(F)c(F)c(Oc2cc(S(=O)(=O)O)cc3cc(S(=O)(=O)O)ccc23)c(F)c1F", "note": "[Example 4FNS-2, Cyanoperfluorotoluenesulfonic acid compound]", "Amount of dissolution in CHA": ">10"}
{"smiles": "O=S(=O)(O)c1ccc2c(Oc3c(F)c(F)c(C(F)(F)F)c(F)c3F)cc(S(=O)(=O)O)cc2c1", "note": "[Example 7FNS-1, Perfluorotoluene naphthalenesulfonic acid compound]", "Amount of dissolution in CHA": ">10"}
{"smiles": "O=S(=O)(O)c1ccc2c(Oc3c(F)c(F)c(C(F)(F)C(F)=C(F)F)c(F)c3F)cc(S(=O)(=O)O)cc2c1", "note": "[Example 9FNS-1, Perfluoroallylbenzene naphthalenesulfonic acid compound]", "Amount of dissolution in CHA": ">10"}
{"smiles": "O=S(=O)(O)c1ccc2c(Oc3c(F)c(F)c(-c4c(F)c(F)c(Oc5cc(S(=O)(=O)O)cc6cc(S(=O)(=O)O)ccc56)c(F)c4F)c(F)c3F)cc(S(=O)(=O)O)cc2c1", "note": "[NSO-2, Naphthalenedisulfonic acid compound, reference compound]", "Amount of dissolution in CHA": 3.3}
